We go through 79 compounds from the METLIN SMRT retention time set (Domingo-Almenara et al. 2019).

The nature of this series: gradient 5% acetonitrile 3 min, to 50% in 2 min, to 85% in 15 min, held 3 min, 100 µL/min. The conditions noted are these: column: Zorbax Extend-C18 2.1 x 50 mm; eluents: water / acetonitrile, 0.1% formic acid. The method in brief:
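Each retention time is based on an adduct peak selected computationally and verified by manual inspection. Measurements used HPLC–quadrupole time-of-flight mass spectrometry in positive and negative ionization mode on mixtures of ~100 pure standards. Chromatography ran on a Zorbax Extend-C18 column (2.1 × 50 mm, 1.8 μm) at 100 μL/min with water and acetonitrile, each containing 0.1% formic acid, and dead and dwell volumes of 40 μL and 900 μL.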
`CCc1nc(N2CCC(C(=O)NCc3cc(OC)ccc3OC)CC2)c2c(C)scc2n1` returned an RP-LC retention time of 691 s.

Compound `COc1cc2ncnc(Nc3ccc(Cl)cc3F)c2cc1OC` registered an RP-LC retention time of 681 s.

`O=C(NCC1(O)CCc2ccccc21)Nc1ccccc1Cl` (centres undefined) registered an RP-LC retention time of 762 s.

`CC1Oc2ccc(S(=O)(=O)N3CCC(C(=O)NC4CCCC4)CC3)cc2NC1=O` (centres undefined): the RP-LC retention time stood at 740 s.

As to `Cc1ccc(C)c(Cn2nc(-c3nc(C)no3)ccc2=O)c1`, the RP-LC retention time was 916 s.

On to `COc1ccc(OC)c(NC(=O)N2CCN(c3cc(-c4ccccc4)ncn3)CC2)c1`, for which the RP-LC retention time turned out to be 667 s.

Consider `COC(=O)c1ccc(C2CC(=O)NC3=C2C(=O)CC(c2ccc(F)cc2)C3)cc1` (centres undefined), for which the RP-LC retention time stood at 820 s.

`CC(=O)N1CCc2sc(C(=O)N3CCN(c4cc(C)ccc4C)CC3)cc2C1` returned an RP-LC retention time of 904 s.

Compound `Cc1ccccc1NC(=O)CN(C)S(=O)(=O)c1cc(C(=O)N2CCC(C)CC2)n(C)c1` displayed an RP-LC retention time of 954 s.

The compound `CCN1C(=O)c2cccnc2Sc2cc(NC(=O)c3ccc(C)cc3)ccc21` showed an RP-LC retention time of 859 s.

Compound `COc1ccc(Cl)cc1NC(=O)c1c(O)c2cccnc2n(-c2cccc(F)c2)c1=O` gave an RP-LC retention time of 1330 s.

On to `Nc1nc(-c2ccccc2)c(C(=O)c2ccccc2)s1`, for which the RP-LC retention time is 706 s.

`CCc1nc2cc(-c3noc(-c4cc(OC)cc(OC)c4)n3)ccc2o1`: the RP-LC retention time is 1210 s.

Consider `COc1ccc(S(=O)(=O)NCc2ccc3c(c2)CCN3C(=O)C(C)C)cc1`, for which the RP-LC retention time was 861 s.

`CCOc1ccc(-c2[nH]nc3nc(-c4cccc(F)c4)cc(C(=O)O)c23)cc1`: the RP-LC retention time was 843 s.

In the case of `Cc1ccc(Cn2c(=O)n(CCNC(=O)c3ccc(C)s3)c3ncccc32)cc1`, the RP-LC retention time amounted to 840 s.

For `COc1ccc(NC(=O)CSc2nc3c(cc2C#N)C(=O)CC(C)(C)C3)c(OC)c1`, the RP-LC retention time worked out at 892 s.

Take `COc1ccc(N2CCN(c3cc(SCC(=O)Nc4cc(OC)cc(OC)c4)ncn3)CC2)cc1`: the RP-LC retention time was found to be 814 s.

Regarding `CCOC(=O)C(=O)Nc1nnc(SCc2nnc(-c3ccccc3C)o2)s1`, the RP-LC retention time stood at 829 s.

Turning to `COc1ccc(-c2nnc(-c3ccccc3Cl)o2)cc1S(=O)(=O)N1CCC(C)CC1`, the RP-LC retention time amounted to 1150 s.

For `CCOc1ccc2nc(C(=O)NCc3cccc(Br)c3)cn2n1`, the RP-LC retention time is 944 s.

Compound `CC(C)n1c(=O)c2ccccc2n(Cc2nc(-c3ccccc3Cl)no2)c1=O` had an RP-LC retention time of 1130 s.

In turn, `CCCc1cnc2c(c1SCC(=O)N(CC)CC)c(=O)n(C)c(=O)n2C` returned an RP-LC retention time of 892 s.

`O=c1c2scc(-c3ccc(F)cc3)c2ncn1Cc1cc(=O)n2ccccc2n1` yielded an RP-LC retention time of 810 s.

As for `O=C(O)C1CCN(C(=O)Cc2n[nH]c(=O)c3ccccc23)CC1`, the RP-LC retention time amounted to 581 s.

In turn, `COc1ccc(Cl)cc1NC(=O)Cn1ncc2c(N3CCN(c4ccccn4)CC3)ncnc21` came in with an RP-LC retention time of 642 s.

Compound `CC(C)NC(=O)c1ccc(OCC2CCN(C(=O)c3c(F)cccc3F)CC2)cc1` had an RP-LC retention time of 862 s.

Compound `O=C(Nc1nnc(SCc2nnc(-c3ccc4c(c3)OCO4)o2)s1)c1cccs1` returned an RP-LC retention time of 815 s.

Compound `Cc1cnc(C(=O)NC2C[C@H]3CC[C@@H](C2)N3S(=O)(=O)c2c(C)noc2C)cn1` (some centres undefined) had an RP-LC retention time of 726 s.

In the case of `COc1ccc(C)cc1NC(=O)N1CCCC1c1cc(C(C)C)on1` (centres undefined), the RP-LC retention time was found to be 1050 s.

Compound `CCOc1ccc(NC(=O)Cc2c(C)nn(-c3nc(C)cs3)c2C)cc1` displayed an RP-LC retention time of 974 s.

Regarding `O=C1CCCCC(CNC(=O)c2n[nH]c(=O)c3ccccc23)N1` (centres undefined), the RP-LC retention time was determined as 604 s.

For the compound `Cc1cc(C)cc(NC(=O)COc2cc(C)nc(N3CCN(c4ccccc4)CC3)n2)c1`, the RP-LC retention time came out at 915 s.

The compound `Cc1noc(C)c1S(=O)(=O)N1CC(N(C)Cc2cccnc2)C1` yielded an RP-LC retention time of 594 s.

As for `CS(=O)(=O)N1CCC(C(=O)Nc2ccc(Cl)c(C(F)(F)F)c2)Oc2ccccc21` (centres undefined), the RP-LC retention time worked out at 1020 s.

Consider `Cn1c(=O)c2c(ncn2CC(=O)N2CCC(Cc3nc(C4CCOCC4)no3)CC2)n(C)c1=O`, for which the RP-LC retention time turned out to be 610 s.

`CCOc1ccc(-c2noc(CSc3nccn3-c3ccccc3)n2)cc1OC` registered an RP-LC retention time of 856 s.

Consider `O=C(C1=CCN(Cc2cccc(F)c2)CC1)N1CCN(c2ccccc2F)CC1`, for which the RP-LC retention time came to 666 s.

Consider `CC(C)C(=O)N1CCC(Cc2noc(C3CC3)n2)C1` (centres undefined), for which the RP-LC retention time is 692 s.

The compound `COc1ccc(N2CCN(c3cc(SCC(=O)NCc4ccc(SC)cc4)ncn3)CC2)cc1` showed an RP-LC retention time of 897 s.

On to `Cc1noc(C)c1CN1CCC(NC(=O)c2ccc(F)cc2F)C1` (centres undefined), for which the RP-LC retention time was 580 s.

For `Cc1cccc(CN2CC(=O)N(c3ccccc3)[C@@H]3CS(=O)(=O)C[C@@H]32)c1`, the RP-LC retention time was 800 s.

`CC1CCN(c2nn(CC(=O)NC3CCc4ccccc43)c(=O)c3ccccc23)CC1` (centres undefined) came in with an RP-LC retention time of 1140 s.

The compound `Cc1ccc(-c2cc3c(=O)n(Cc4noc(CN5CCCCCCC5)n4)ccn3n2)cc1C` yielded an RP-LC retention time of 806 s.

Turning to `CCS(=O)(=O)N1CCC(Cc2nncn2-c2ccccc2)C1` (centres undefined), the RP-LC retention time stood at 631 s.

For the compound `O=C(C1CCC1)N1CCc2sc(S(=O)(=O)NCc3ccc(F)cc3)cc2C1`, the RP-LC retention time was determined as 877 s.

`O=S(=O)(c1cccc(-c2nc(-c3ccccc3)no2)c1)N1CCCc2ccccc21` displayed an RP-LC retention time of 1350 s.

Turning to `COc1ccc(CN2C=C(C(=O)OCc3nc(-c4ccccc4)no3)C(C)=NS2(=O)=O)cc1`, the RP-LC retention time stood at 1100 s.

Compound `CCOCCOC1CCN(C(=O)c2ccoc2)CC1` yielded an RP-LC retention time of 679 s.

On to `Cc1nc(NC2CCCCC2)sc1C(=O)Nc1cccc(F)c1`, for which the RP-LC retention time was 872 s.

`Cc1cc(C)cc(NC(=O)Cn2nc(N3CCSCC3)c3ccccc3c2=O)c1` yielded an RP-LC retention time of 1020 s.

On to `Cc1ccccc1C(=O)CC1(O)C(=O)Nc2ccc(F)cc21` (centres undefined), for which the RP-LC retention time was determined as 730 s.

Consider `O=C(CCc1c(-c2ccccc2)nc2ccccn12)Nc1ccc(F)cc1Cl`, for which the RP-LC retention time came out at 795 s.

As for `COc1ccc(-c2cn3ccn(-c4ccc(OC)c(OC)c4)c(=O)c3n2)cc1`, the RP-LC retention time is 732 s.

In turn, `COc1ccc(NC(=O)c2cnc(N3CCN(C(=O)c4ccco4)CC3)nc2N)cc1` yielded an RP-LC retention time of 593 s.

`N#Cc1cccc(-c2cn3c(n2)N(C(=O)c2cccs2)CCC3)c1` showed an RP-LC retention time of 684 s.

The compound `Nc1cc(C2CCN(C(=O)Nc3cc(F)c(F)c(F)c3)CC2)no1` had an RP-LC retention time of 765 s.

Consider `CCCCNC(=O)c1cc(NS(=O)(=O)c2ccc(C(C)(C)C)cc2)cnc1N1CCNCC1`, for which the RP-LC retention time is 706 s.

As for `COc1cc2ncnc(Nc3cccc(Br)c3)c2cc1OC`, the RP-LC retention time was found to be 771 s.

The compound `CC1(C(=O)NCc2ccccc2)CN(S(=O)(=O)c2ccccc2)CC(=O)N1C1CCCCCC1` (centres undefined) showed an RP-LC retention time of 1060 s.

In the case of `CCOC(=O)CNC(=O)N1CCc2c([nH]c3ccc(OC)cc23)C1c1ccc(OC)cc1` (centres undefined), the RP-LC retention time was 886 s.

In the case of `CCCc1nc(-c2c(C)cc(C)nc2NC(=O)C2CCCCC2)no1`, the RP-LC retention time was 876 s.

`CCN(CC)C(=O)c1ccc(-c2nnc3ccc(NC(=O)C4CCC4)cn23)cc1` came in with an RP-LC retention time of 745 s.

`CCOc1cc(=O)n2c(c1C(=O)Nc1cccc(Br)c1)CCCC2`: the RP-LC retention time stood at 802 s.

`O=S(=O)(c1ccc(-c2noc(-c3cccc(Cl)c3)n2)cc1)N1CCOCC1`: the RP-LC retention time was determined as 1170 s.

Turning to `COc1ccc2c(c1)C1(CCN(S(=O)(=O)c3c(C)noc3C)C1)C(=O)N2C` (centres undefined), the RP-LC retention time came to 877 s.

Compound `CCOC(=O)CCC(=O)Nc1cc(C)nn1-c1nc(-c2ccc(F)cc2)cs1` had an RP-LC retention time of 1100 s.

In turn, `Cc1ncc2c(n1)C[C@@H]1CC[C@H]2N1C(=O)c1sccc1C` returned an RP-LC retention time of 654 s.

`CCCc1cc(N2CCN(C(=O)c3ccc(N(C)C)cc3)CC2)nc2nnc(CC)n12` had an RP-LC retention time of 649 s.

Compound `CCc1ccc2[nH]c3c(c(=O)c2c1)CN(CC(=O)NCc1ccccc1Cl)CC3` came in with an RP-LC retention time of 633 s.

In turn, `CC(Cc1ccco1)NC(=O)CCCn1c2ccccc2c2cnn(C)c(=O)c21` (centres undefined) returned an RP-LC retention time of 775 s.

`CCc1nnc(NC(=O)CCc2ccc(-c3ccc(F)cc3)o2)s1` returned an RP-LC retention time of 855 s.

The compound `CN(C)CCCn1c(C2CC(=O)N(c3ccc(F)cc3)C2)nc2ccccc21` (centres undefined) came in with an RP-LC retention time of 590 s.

In the case of `O=C(N[C@H]1C[C@@H]2C[C@H]1N(C(=O)Nc1ccc(Cl)cc1F)C2)c1cccs1`, the RP-LC retention time was determined as 855 s.

In turn, `Cc1ccccc1-c1nc2cnccn2c1NCCC(=O)NCc1ccccc1F` yielded an RP-LC retention time of 660 s.

In the case of `COc1ccc(OC)c(C2CN(C(=O)c3ccc4c(c3)OCO4)CC2C(=O)N2CCCC2)c1` (centres undefined), the RP-LC retention time was 723 s.

Compound `Cc1nc(-c2csc(S(=O)(=O)N3CCC(C(=O)Nc4cccc(Cl)c4)CC3)c2)no1` showed an RP-LC retention time of 1000 s.

In turn, `CCOC(=O)c1nn(-c2ccccc2)cc1O` came in with an RP-LC retention time of 830 s.

In turn, `O=C(Cc1ccc(Cl)cc1)Nc1cnc(N2CCCCC2)nc1` displayed an RP-LC retention time of 962 s.
